The values that follow come from patent US9242943B2, “1,4 oxazines as BACE1 and/or BACE2 inhibitors” (SIENA BIOTECH S.P.A., priority 2011, dated 2016).

For series [1], the target named is BACE2 (Rattus norvegicus (Rat), UniProt Q6IE75). The series is described as follows: Assay for BACE inhibition by measuring cellular TMEM27 cleavage (INS-TMEM27 cells, ELISA). It is filed as cell-based. As to conditions: INS-TMEM27 (INS1e-derived) cells; shed TMEM27 in supernatant; read-out: BACE2 cell act. IC50. An excerpt: Assay for BACE Inhibition by Measuring Cellular TMEM27 Cleavage:
The assay uses the principle of inhibition of human TMEM27 cleavage by endogenous cellular BACE2 in the Ins1e rat cell line and shedding from the cell surface into the culture medium, followed by detection in an ELISA assay. Inhibition of BACE2 prevents the cleavage and shedding in a dose-dependent manner
The stable cell line “INS-TMEM27” represents an INS1e-derived cell line with inducible expression (using the TetOn system) of full-length hTMEM27 in a doxycycline-dependent manner. The cells are cultured throughout the experiment in RPMI1640 +Glutamax (Invitrogen) Penicillin/Streptomycin, 10% Fetal bovine serum, […], […], 100 micrograms/ml G418 and 100 microgram/ml hygromycin and are grown inadherent culture at 37° C. in a standard CO2 cell culture incubator.
INS-TMEM27 cells are seeded in 96-well plates. After 2 days in culture, BACE2 inhibitor is added in a range of concentrations as required by the assay and after a further two hours, doxycycline is added to a final concentration of 500 ng/ml. The cells are incubated for a further 46 hours and the supernatant harvested for detection of shed TMEM27.
An ELISA assay (using a pair of mouse anti-human-TMEM27 antibodies, raised against the extracellular domain of TMEM27) is used for detection of TMEM27 in the culture medium. An EC50 for BACE2 inhibition is calculated using the ELISA readout for each inhibitor concentration with standard curve-fitting software such as XLFit for the Excel spreadsheet program.
Background: An ELISA detects its analyte on a solid surface through an enzyme-linked reagent.

For series [2], the target named is CYP2C9 (Homo sapiens (Human), UniProt P11712). The series is described as follows: CYP inhibition assay, human liver microsomes, diclofenac 4' hydroxylase. It is filed as in vitro ADME. The conditions noted are these: pooled human liver microsomes, diclofenac substrate; read-out: CYP IC50 2C9. The method, then: (§1) Inhibition of cytochromes P450 (CYPs) 2C9, 2D6 and 3A4 was assessed using human liver microsomes and CYP-selective substrate metabolism reactions. 50 μl incubations were made up containing (finally) 0.2 mg/ml pooled human liver microsomes, 5 μM substrate (diclofenac for CYP2C9 [4′ hydroxylase], dextromethorphan for CYP2D6 [O-demethylase] or midazolam for CYP3A4 [1′ hydroxylase]), 0.25 μl, DMSO containing test inhibitor and NADPH regenerating system. Test inhibitor concentrations of 50, 16.7, 5.6, 1.9, 0.6 and 0.2 μM were assessed in singlicate. Incubations were prewarmed to 37° C. for 10 minutes before initiation by addition of NADPH regenerating system. Incubations were quenched after 5 minutes (20 minutes for dextromethorphan) by addition of 50 μl cold acetonitrile containing 20 ng/ml 4-OH-diclofenac-13C6, 20 ng/mL dextrorphan-D3 and 20 ng/mL 1-OH-midazolam-D4. Quenched incubates were stored at −20° C. for at least 1 hour before centrifugation (20,000×g, 20 minutes). Supernatants were removed and diluted 1:1 with water prior to analysis using a RapidFire sample injector system and API4000 mass spectrometer. Peak areas for substrate, metabolite and stable-labelled metabolite standard were determined using MS/MS. […] The percentage of (DMSO) control activity was calculated for each incubate and IC50 values estimated by non-linear regression. […]
In general terms: Microsomes from liver hold many membrane-bound enzymes, among them those of drug oxidation.

For series [3], the target named is CYP2D6 (Homo sapiens (Human), UniProt P10635). The series is described as follows: CYP inhibition assay, human liver microsomes, dextromethorphan O-demethylase. It is filed as in vitro ADME. The conditions noted are these: pooled human liver microsomes, dextromethorphan substrate; read-out: CYP IC50 2D6. On the procedure:
as §1

Series [4] has as its target BACE1 (Homo sapiens (Human), UniProt P56817). The series is described as follows: Cellular Aβ-lowering assay (Aβ40 ELISA, HEK293 cells expressing human APP695). It is filed as cell-based. As to conditions: HEK293 cells stably transfected with human APP695; 18-20 hrs incubation; Aβ40 in supernatant; read-out: BACE1 cell act. Aβ40 IC50. On the procedure:
Cellular Aβ-Lowering Assay:
Human HEK293 cells which are stably transfected with a vector expressing a cDNA of the human APP wt gene (APP695) were used to assess the potency of the compounds in a cellular assay. The cells were seeded in 96-well microtiter plates in cell culture medium (Iscove, plus 10% (v/v) fetal bovine serum, glutamine, penicillin/streptomycin) to about 80% confluence and the compounds were added at a 10× concentration in 1/10 volume of medium without FCS containing 8% DMSO (final concentration of DMSO was kept at 0.8% v/v). After 18-20 hrs incubation at 37° C. and 5% CO2 in a humidified incubator the culture supernatant was harvested for the determination of […] concentrations. 96well ELISA plates (e.g., Nunc MaxiSorb) were coated with monoclonal antibody which specifically recognize the C-terminal end of […] (Brockhaus et al., NeuroReport 9, 1481-1486; 1998). After blocking of non-specific binding sites with e.g. 1% BSA and washing, the culture supernatants were added in suitable dilutions together with a horseradish peroxidase-coupled Aβ detection antibody (e.g., antibody 4G8, Senetek, Maryland Heights, Mo.) and incubated for 5 to 7 hrs. Subsequently the wells of the microtiter plate were washed extensively with Tris-buffered saline containing 0.05% Tween 20 and the assay was developed with tetramethylbenzidine/H2O2 in citric acid buffer. After stopping the reaction with one volume 1 N H2SO4 the reaction was measured in an ELISA reader at 450 nm wavelength. The concentrations of Aβ in the culture supernatants were calculated from a standard curve obtained with known amounts of pure Aβ peptide.

Series [5] deals with CYP3A4 (Homo sapiens (Human), UniProt P08684). The series is described as follows: CYP inhibition assay, human liver microsomes, midazolam 1' hydroxylase. The conditions noted are these: pooled human liver microsomes, midazolam substrate; read-out: CYP IC50 3A4. It is filed as in vitro ADME. The method, then: as §1
Series [6] deals with cathepsin D (from human liver) (Homo sapiens (Human), UniProt P07339). The series is described as follows: Cathepsin D fluorescent substrate kinetic assay (MR121). It is filed as biochemical. The conditions noted are these: pH 5.5, substrate WTSVLMAAPC-MR121. An excerpt: (§2) Cathepsin D and Cathepsin E Fluorescent Substrate Kinetic Assays General Assay Principle
(§3) The MR121 fluorescence assays described below are based on the fact that MR121 forms a non-fluorescent ground state complex with tryptophan. In solution this formation occurs at millimolar concentrations of tryptophan. The mechanism can be used to design a generic biochemical assay for proteases. A substrate peptide is labeled at the N-terminus with tryptophan and at the C-terminus with the fluorophore MR121 (for cathepsin D the 10 amino acid peptide WTSVLMAAPC-MR121 was used; for cathepsin E, MR121-CKLVFFAEDW was used). In absence of protease activity, the substrates remain intact and the MR121 fluorescence is reduced by the high local Trp-concentration. If the substrates are cleaved by the enzymes the MR121 fluorescence is recovered.
(§4) The fluorescent substrate cathepsin D and cathepsin E kinetic assays were performed at room temperature in 384-well microtiter plates (black with clear flat bottom, non binding surface plates from Corning) in a final volume of 51 μl. […] The enzymatic reaction was followed in a plate: vision reader (Perkin Elmer) (excitation wavelength: 630 nm; emission: 695 nm) for at least 30 minutes in a kinetic measurement detecting an increase of MR121 fluorescence during the reaction time. […]

Series [7] deals with recombinant human cathepsin E (Homo sapiens (Human), UniProt P14091). The series is described as follows: Cathepsin E fluorescent substrate kinetic assay (MR121). It is filed as biochemical. The conditions noted are these: pH 4.5, substrate MR121-CKLVFFAEDW
Excerpt: as §2, §3, §4

BACE1, sequence (P56817 46-501): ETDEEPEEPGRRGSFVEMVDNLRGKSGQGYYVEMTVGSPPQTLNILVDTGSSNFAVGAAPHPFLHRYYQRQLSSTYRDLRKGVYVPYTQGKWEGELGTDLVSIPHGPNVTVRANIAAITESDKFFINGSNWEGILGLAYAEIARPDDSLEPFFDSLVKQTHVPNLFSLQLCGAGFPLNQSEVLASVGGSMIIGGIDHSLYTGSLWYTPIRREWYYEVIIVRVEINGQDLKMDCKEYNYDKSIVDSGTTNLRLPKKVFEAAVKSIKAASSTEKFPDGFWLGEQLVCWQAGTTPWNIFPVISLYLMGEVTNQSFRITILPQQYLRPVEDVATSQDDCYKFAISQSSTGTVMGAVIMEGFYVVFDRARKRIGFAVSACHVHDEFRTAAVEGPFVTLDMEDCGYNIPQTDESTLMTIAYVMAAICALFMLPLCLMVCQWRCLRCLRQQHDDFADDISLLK
BACE2, sequence (Q6IE75 63-514): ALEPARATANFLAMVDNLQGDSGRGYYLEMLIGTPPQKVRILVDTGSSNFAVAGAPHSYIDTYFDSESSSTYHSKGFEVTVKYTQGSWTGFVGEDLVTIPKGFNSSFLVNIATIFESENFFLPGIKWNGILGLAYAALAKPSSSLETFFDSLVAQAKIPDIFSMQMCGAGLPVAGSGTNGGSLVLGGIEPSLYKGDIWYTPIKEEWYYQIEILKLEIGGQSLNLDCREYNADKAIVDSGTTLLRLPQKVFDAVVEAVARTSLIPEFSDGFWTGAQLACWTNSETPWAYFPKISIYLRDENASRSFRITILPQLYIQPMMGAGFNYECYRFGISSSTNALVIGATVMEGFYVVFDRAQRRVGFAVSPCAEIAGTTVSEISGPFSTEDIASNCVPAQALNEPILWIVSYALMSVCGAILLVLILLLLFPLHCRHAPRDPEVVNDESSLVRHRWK
CYP3A4, sequence (P08684 whole entry): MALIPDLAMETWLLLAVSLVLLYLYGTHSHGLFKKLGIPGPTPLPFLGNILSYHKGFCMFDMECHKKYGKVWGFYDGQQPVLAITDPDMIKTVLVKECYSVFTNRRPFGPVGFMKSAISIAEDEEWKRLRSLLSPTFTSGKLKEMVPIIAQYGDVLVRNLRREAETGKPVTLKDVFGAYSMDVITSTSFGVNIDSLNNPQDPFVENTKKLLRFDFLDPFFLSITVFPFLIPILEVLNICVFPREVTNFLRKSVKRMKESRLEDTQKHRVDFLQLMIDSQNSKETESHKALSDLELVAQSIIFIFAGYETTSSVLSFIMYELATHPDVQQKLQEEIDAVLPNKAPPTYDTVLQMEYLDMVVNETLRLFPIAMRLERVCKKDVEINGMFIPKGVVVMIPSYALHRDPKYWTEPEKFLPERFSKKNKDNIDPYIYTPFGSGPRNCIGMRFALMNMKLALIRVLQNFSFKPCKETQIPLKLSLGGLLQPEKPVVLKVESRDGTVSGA
CYP2C9, sequence (P11712 whole entry): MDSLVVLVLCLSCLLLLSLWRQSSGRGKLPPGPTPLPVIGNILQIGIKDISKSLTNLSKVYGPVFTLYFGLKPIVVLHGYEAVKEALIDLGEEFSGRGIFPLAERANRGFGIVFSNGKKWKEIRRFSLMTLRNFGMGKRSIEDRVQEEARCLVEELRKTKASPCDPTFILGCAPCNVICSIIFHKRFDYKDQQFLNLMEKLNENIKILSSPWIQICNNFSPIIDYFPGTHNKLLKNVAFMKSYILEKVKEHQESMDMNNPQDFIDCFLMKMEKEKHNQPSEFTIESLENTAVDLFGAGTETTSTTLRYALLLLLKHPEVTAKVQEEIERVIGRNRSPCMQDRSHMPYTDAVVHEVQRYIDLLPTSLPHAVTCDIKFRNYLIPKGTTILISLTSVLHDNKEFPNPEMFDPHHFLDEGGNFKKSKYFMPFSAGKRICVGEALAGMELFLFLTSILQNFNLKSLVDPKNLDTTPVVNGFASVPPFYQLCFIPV
cathepsin D (from human liver), sequence (P07339 169-412): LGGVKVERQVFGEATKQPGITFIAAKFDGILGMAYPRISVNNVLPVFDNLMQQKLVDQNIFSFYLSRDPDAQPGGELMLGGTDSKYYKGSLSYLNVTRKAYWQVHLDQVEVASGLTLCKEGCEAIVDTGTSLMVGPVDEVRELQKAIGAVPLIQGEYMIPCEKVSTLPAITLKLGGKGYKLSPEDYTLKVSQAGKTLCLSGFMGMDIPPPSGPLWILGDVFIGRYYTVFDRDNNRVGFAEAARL
cathepsin D (from human liver), sequence (P07339 65-162): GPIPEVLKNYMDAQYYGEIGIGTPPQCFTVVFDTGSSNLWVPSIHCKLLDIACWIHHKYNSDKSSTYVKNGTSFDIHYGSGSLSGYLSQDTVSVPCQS
recombinant human cathepsin E, sequence (P14091 54-396): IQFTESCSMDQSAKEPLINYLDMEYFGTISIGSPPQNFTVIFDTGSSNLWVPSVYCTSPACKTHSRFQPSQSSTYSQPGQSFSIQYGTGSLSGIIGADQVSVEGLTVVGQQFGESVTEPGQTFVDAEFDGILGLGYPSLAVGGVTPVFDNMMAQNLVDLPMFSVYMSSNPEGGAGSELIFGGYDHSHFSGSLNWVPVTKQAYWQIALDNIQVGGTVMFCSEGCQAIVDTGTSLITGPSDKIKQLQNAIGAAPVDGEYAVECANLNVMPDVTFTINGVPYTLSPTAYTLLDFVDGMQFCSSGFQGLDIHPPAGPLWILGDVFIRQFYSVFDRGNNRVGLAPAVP
CYP2D6, sequence (P10635 whole entry): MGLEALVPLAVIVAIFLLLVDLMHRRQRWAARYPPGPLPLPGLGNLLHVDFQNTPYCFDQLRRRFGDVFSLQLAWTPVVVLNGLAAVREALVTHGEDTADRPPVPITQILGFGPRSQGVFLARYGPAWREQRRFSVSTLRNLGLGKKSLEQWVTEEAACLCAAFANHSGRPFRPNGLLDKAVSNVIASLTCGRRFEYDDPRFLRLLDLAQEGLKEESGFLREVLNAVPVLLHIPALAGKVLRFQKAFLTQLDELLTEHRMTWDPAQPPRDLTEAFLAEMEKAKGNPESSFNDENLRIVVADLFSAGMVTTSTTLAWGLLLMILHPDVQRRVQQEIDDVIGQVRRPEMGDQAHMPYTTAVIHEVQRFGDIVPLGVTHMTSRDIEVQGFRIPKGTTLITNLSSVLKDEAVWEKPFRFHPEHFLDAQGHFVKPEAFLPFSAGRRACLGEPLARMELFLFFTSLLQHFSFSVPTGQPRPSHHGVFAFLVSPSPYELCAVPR

Regarding `C[C@@]1(c2cc(Nc3cc(Cl)cc4cc(Cl)cnc34)ccc2F)COCC(N)=N1` [Example 27, [3-((R)-5-Amino-3-methyl-3,6-dihydro-2H-[1,4]oxazin-3-yl)-4-fluoro-phenyl]-(3,6-dichloro-quinolin-8-yl)-amine], the IC50 was 558 nM in series [1]; over 50000 nM in series [2]; 4500 nM in series [3]; 660 nM in series [4]; 33000 nM in series [5].

As to `C[C@@]1(c2cc(Nc3cccc4cc(OC(F)F)cnc34)ccc2F)COCC(N)=N1` [Example 29, [3-((R)-5-Amino-3-methyl-3,6-dihydro-2H-[1,4]oxazin-3-yl)-4-fluoro-phenyl]-(3-difluoromethoxy-quinolin-8-yl)-amine], the IC50 was determined as 2300 nM in series [1], 270 nM in series [4], 21100 nM in series [6] and 17600 nM in series [7].

For the compound `Cn1nc(Nc2ccc(F)c([C@@]3(C)COCC(N)=N3)c2)c2ccc(Cl)cc21` [Example 34, (S)-5-(5-(6-chloro-1-methyl-1H-indazol-3-ylamino)-2-fluorophenyl)-5-methyl-5,6-dihydro-2H-1,4-oxazin-3-amine], the IC50 in series [1] was found to be 1480 nM; in series [2], 6700 nM; in series [3] it was 2000 nM; in series [4] it was 1040 nM; in series [5], 25000 nM.

In the case of `CC1(c2cccc(Nc3cc(F)cc4cc(Cl)cnc34)c2)COCC(N)=N1` (centres unmarked) [Example 36, [3-(5-Amino-3-methyl-3,6-dihydro-2H-[1,4]oxazin-3-yl)-phenyl]-(3-chloro-6-fluoro-quinolin-8-yl)-amine], the IC50 in series [4] came out at 250 nM; in series [6] it was 2600 nM; in series [7], 5000 nM.

As usually defined, the IC50 is the concentration that inhibits the measured activity by half.
